According to patent US20230234943A1, “TREX1 INHIBITORS AND USES THEREOF” (Tempest Therapeutics, Inc., priority 2020, published 2023):

Molecular target: T1, Human TREX1 enzyme (amino acids 1-242) (Homo sapiens, UniProt Q9NSU2)
T1 construct: Human TREX1 enzyme (amino acids 1-242)
T1 sequence (Q9NSU2 1-242): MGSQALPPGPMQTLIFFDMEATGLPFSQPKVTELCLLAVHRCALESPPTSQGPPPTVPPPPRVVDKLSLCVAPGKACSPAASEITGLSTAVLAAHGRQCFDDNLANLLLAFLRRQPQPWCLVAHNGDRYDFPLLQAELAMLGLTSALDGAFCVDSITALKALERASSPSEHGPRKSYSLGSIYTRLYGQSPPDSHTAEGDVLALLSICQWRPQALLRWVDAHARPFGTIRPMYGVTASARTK
Assay: Human TREX1 enzymatic assay with dsDNA native oligonucleotide (Picogreen fluorescence)
Type: biochemical
Conditions: 2 mM dithiothreitol in assay buffer; 50 nM dsDNA oligonucleotide; 30 min preincubation at 25° C.; read-out: TREX1/Human + DTT IC50 AVG
In short: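 TREX1 (0.8–0.16 nM final) preincubated with compound (300 μM–13 nM or 30 μM–1.5 nM, 2% DMSO) 30 min at 25 °C in Tris pH 7.7, 5 mM MgCl2, 2 mM DTT. Annealed dsDNA (50 nM) added for 5–15 min at 25 °C; EDTA quench with Picogreen fluorescence readout.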

| IC50 [µM] | SMILES |
| --- | --- |
| 1 to 10 | COc1cc(-c2nc3ccccc3n2C2CC2)c(C)c(O)c1O [Example 324, 4-(1-cyclopropyl-1H-benzo[d]imidazol-2-yl)-6-methoxy-3-methylbenzene-1,2-diol] |
| > 100 | COc1cc(-c2nc3cc(N4CC5(CN(C)C5)C4)ccc3[nH]2)cc(O)c1O [Example 152, 3-methoxy-5-(5-(6-methyl-2,6-diazaspiro[3.3]heptan-2-yl)-1H-benzo[d]imidazol-2-yl)benzene-1,2-diol] |
| 1 to 10 | COc1cc(-c2nc3cc(N4CC(NS(C)(=O)=O)C4)ccc3[nH]2)cc(O)c1O [Example 146, N-(1-(2-(3,4-dihydroxy-5-methoxyphenyl)-1H-benzo[d]imidazol-5-yl)azetidin-3-yl)methanesulfonamide] |
| > 100 | COc1cc(-c2nc3cc(C4CCNCC4)ccc3[nH]2)cc(O)c1O [Example 58, 3-methoxy-5-(5-(piperidin-4-yl)-1H-benzo[d]imidazol-2-yl)benzene-1,2-diol] |
| 1 to 10 | COc1ccccc1C(=O)N1CCN(c2ccc3[nH]c(-c4cc(O)c(O)c(OC)c4)nc3c2)CC1 [Example 86, (4-(2-(3,4-dihydroxy-5-methoxyphenyl)-1H-benzo[d]imidazol-5-yl)piperazin-1-yl)(2-methoxyphenyl)methanone] |
| ≤ 0.1 | COc1cc(-c2nc3ccc(NC(C)=O)cc3n2C2(C)COC2)c(F)c(O)c1O [Example 207, N-[2-(2-fluoro-3,4-dihydroxy-5-methoxyphenyl)-1-(3-methyloxetan-3-yl)-1H-1,3-benzodiazol-6-yl]acetamide] |
| 10 to 100 | COc1cc(-c2nc3cc(O)ccc3[nH]2)c(C)c(O)c1O [Example 183, 4-(5-hydroxy-1H-1,3-benzodiazol-2-yl)-6-methoxy-3-methylbenzene-1,2-diol] |
| 10 to 100 | COc1c(C)c(-c2nc3cc(N4CCC4)ccc3n2C2CCC2)cc(O)c1O [Example 299, 5-(5-(azetidin-1-yl)-1-cyclobutyl-1H-benzo[d]imidazol-2-yl)-3-methoxy-4-methylbenzene-1,2-diol] |
| 1 to 10 | COc1cc(-c2nc3ccncc3[nH]2)cc(C(=O)O)c1O [Example 5, 2-hydroxy-5-(3H-imidazo[4,5-c]pyridin-2-yl)-3-methoxybenzoic acid] |
| > 100 | COc1cc(-c2nc3cc(N4CCC(N5CCCCC5)CC4)ccc3[nH]2)cc(O)c1O [Example 160, 5-(5-([1,4′-bipiperidin]-1′-yl)-1H-benzo[d]imidazol-2-yl)-3-methoxybenzene-1,2-diol] |
| 1 to 10 | COc1cc(-c2nc3ccccc3n2C2CCCC2)c(C)c(O)c1O [Example 148, 4-(1-cyclopentyl-1H-benzo[d]imidazol-2-yl)-6-methoxy-3-methylbenzene-1,2-diol] |
| 0.1 to 1 | COc1cc(-c2nc3cc(NC(C)=O)ccc3n2C2CCC2)c(F)c(O)c1O [Example 313, N-(1-cyclobutyl-2-(2-fluoro-3,4-dihydroxy-5-methoxyphenyl)-1H-benzo[d]imidazol-5-yl)acetamide] |
| ≤ 0.1 | CNC(=O)c1ccc2nc(-c3cc(OC)c(O)c(O)c3C)n(C3(C)COC3)c2c1 [Example 213, 2-(3,4-dihydroxy-5-methoxy-2-methylphenyl)-N-methyl-1-(3-methyloxetan-3-yl)-1H-1,3-benzodiazole-6-carboxamide] |
| > 100 | COc1cc(-c2nc3cc(N4CCN(c5ccccn5)CC4)ccc3[nH]2)cc(O)c1O [Example 73, 3-methoxy-5-(5-(4-(pyridin-2-yl)piperazin-1-yl)-1H-benzo[d]imidazol-2-yl)benzene-1,2-diol] |
| > 100 | O=C(O)c1ccc(-c2nc3ccccc3n2C2COC2)cc1O [Example 56, 2-hydroxy-4-(1-(oxetan-3-yl)-1H-benzo[d]imidazol-2-yl)benzoic acid] |
| ≤ 0.1 | CNC(=O)c1ccc2nc(-c3cc(OC)c(O)c(O)c3F)n(C3(C)COC3)c2c1 [Example 212, 2-(2-fluoro-3,4-dihydroxy-5-methoxyphenyl)-N-methyl-1-(3-methyloxetan-3-yl)-1H-benzo[d]imidazole-6-carboxamide] |
